# Laboratory results from patent publication US20120010235A1, “N-SUBSTITUTED PYRROLIDINES” (priority 2010, published 2012).
# System: SJSA, an osteocarcinoma cell line
# Experiment: antiproliferative activity assay (tetrazolium dye, MTT) in SJSA cells
# Details: cell-based MTT assay, inhibition of cell proliferation, read-out: TT IC50
# Method: The pharmacological properties of the compounds of this invention may be confirmed by a number of pharmacological assays. The exemplified antiproliferative activity assay which follows has been carried out with the compounds according to the invention.
# Cell proliferation was evaluated by the tetrazolium dye assay according to the procedure of Denizot and Lang (Denizot, F. and Lang, R. (1986) Rapid colorimetric assay for cell growth and survival. Modification to the terrazolium dye procedure giving improved sensitivity and reliability. J. Immunol. Methods 89, 271-277). The cell line used was SJSA, an osteocarcinoma cell line obtained from the American Type Cell Culture Collection (ATCC; Rockville, Md.). The cells were grown in PRMI with 10% FBS (Fetal Bovine Serum, Invitrogen).
# Cells were plated at the appropriate seeding density to give logarithmic growth over the course of the assay in a 96-well tissue culture plate. Plates were incubated overnight at 37° C. in a humidified incubator with 5% CO2. The next day, test compounds were serially diluted 1:3 in the appropriate medium containing 3% DMSO. One-tenth final volume of each dilution was added […] to the plates containing cells. The same volume of 3% DMSO in medium was added to a row of control wells. Thus, the final concentration of DMSO in all wells was 0.3%. The plates were returned to the incubator, and at set time points (determined by their growth curves) plates were analyzed as follows: 3-(4,5-dimethylthiazole-2-yl)-2,5-diphenyl-2H-tetrazolium bromide (thiazolyl blue; MTT; Sigma) was added to each well to yield a final concentration of 1 mg/ml. Plates were returned to the incubator for 2.5 hours. The MTT-containing medium was removed and the resulting formazan metabolite was solubilized in 100% ethanol with shaking for 15 minutes at room temperature. Absorbances were read in a microtiter plate reader at a wavelength of 570 nm with a 650 nm reference. Percent inhibition (% INH) was calculated by subtracting the blank from all wells, then subtracting the ratio of the average absorbance of each triplicate (SAVE) by the average of the controls (CAVE) from 1.00. The final product was then multiplied by 100 (% INH=(1.00−SAVE/CAVE)×100). The concentration at which 50% inhibition (IC50) of cell proliferation is obtained was determined from the linear regression of a plot of the logarithm of the concentration versus percent inhibition.
row,Compound,IC50
1,"C#CCN1[C@@H](CC(C)(C)C)[C@](C#N)(c2ccc(Cl)cc2F)[C@@H](c2cccc(Cl)c2F)[C@@H]1C(=O)Nc1ccc(C(=O)O)cc1OC [Example 62, 4-{[(2R,3S,4R,5S)-3-(3-chloro-2-fluoro-phenyl)-4-(4-chloro-2-fluoro-phenyl)-4-cyano-5-(2,2-dimethyl-propyl)-1-prop-2-ynyl-pyrrolidine-2-carbonyl]-amino}-3-methoxy-benzoic acid]",80 nM
2,"CC(C)(C)C[C@@H]1N(CCC2CCCCC2)[C@@H](C(=O)Nc2ccc(C(=O)O)cc2)[C@H](c2cccc(Cl)c2F)[C@@]1(C#N)c1ccc(Cl)cc1F (racemic) [Example 37, rac-4-{[(2R,3S,4R,5S)-3-(3-chloro-2-fluoro-phenyl)-4-(4-chloro-2-fluoro-phenyl)-4-cyano-1-(2-cyclohexyl-ethyl)-5-(2,2-dimethyl-propyl)-pyrrolidine-2-carbonyl]-amino}-benzoic acid]",110 nM
3,"COc1cc(C(=O)O)ccc1NC(=O)[C@H]1[C@H](c2cccc(Cl)c2F)[C@@](C#N)(c2ccc(Cl)cc2F)[C@H](CC(C)(C)C)N1CC1CC1 (racemic) [Example 40, rac-4-{[(2R,3S,4R,5S)-3-(3-chloro-2-fluoro-phenyl)-4-(4-chloro-2-fluoro-phenyl)-4-cyano-1-cyclopropylmethyl-5-(2,2-dimethyl-propyl)-pyrrolidine-2-carbonyl]-amino}-3-methoxy-benzoic acid]",130 nM
4,"CC(C)CN1[C@@H](CC(C)(C)C)[C@](C#N)(c2ccc(Cl)cc2F)[C@@H](c2cccc(Cl)c2F)[C@@H]1C(=O)Nc1ccc(C(=O)O)cc1 [Example 32, 4-{[(2R,3S,4R,5S)-3-(3-chloro-2-fluoro-phenyl)-4-(4-chloro-2-fluoro-phenyl)-4-cyano-5-(2,2-dimethyl-propyl)-1-isobutyl-pyrrolidine-2-carbonyl]-amino}-benzoic acid]",660 nM
5,"COc1cc(NC(=O)[C@H]2[C@H](c3cccc(Cl)c3F)[C@@](C#N)(c3ccc(Cl)cc3F)[C@H](CC(C)(C)C)N2C)ccc1C(=O)O (racemic) [Example 42, 4-{[(2R,3S,4R,5S)-3-(3-chloro-2-fluoro-phenyl)-4-(4-chloro-2-fluoro-phenyl)-4-cyano-5-(2,2-dimethyl-propyl)-1-methyl-pyrrolidine-2-carbonyl]-amino}-2-methoxy-benzoic acid]",1360 nM
6,"CCN1[C@@H](CC(C)(C)C)[C@](C#N)(c2ccc(Cl)cc2F)[C@@H](c2cccc(Cl)c2F)[C@@H]1C(=O)Nc1ccc(C(=O)O)cc1OC (racemic) [Example 44, rac-4-{[(2R,3S,4R,5S)-3-(3-chloro-2-fluoro-phenyl)-4-(4-chloro-2-fluoro-phenyl)-4-cyano-5-(2,2-dimethyl-propyl)-1-ethyl-pyrrolidine-2-carbonyl]-amino}-3-methoxy-benzoic acid]",220 nM
7,"CCOC(=O)C1CC1CN1[C@@H](CC(C)(C)C)[C@](C#N)(c2ccc(Cl)cc2F)[C@@H](c2cccc(Cl)c2F)[C@@H]1C(=O)Nc1ccc(C(=O)OC)cc1OC (stereo partly drawn) [Example 61, 4-{[(2R,3S,4R,5S)-3-(3-chloro-2-fluoro-phenyl)-4-(4-chloro-2-fluoro-phenyl)-4-cyano-5-(2,2-dimethyl-propyl)-1-(2-ethoxycarbonyl-cyclopropylmethyl)-pyrrolidine-2-carbonyl]-amino}-3-methoxy-benzoic acid methyl ester]",680 nM
8,"CC(C)(C)C[C@@H]1N(CC2CC2)[C@@H](C(=O)Nc2ccc(C(=O)O)cc2)[C@H](c2cccc(Cl)c2F)[C@@]1(C#N)c1ccc(Cl)cc1F (racemic) [Example 34, rac-4-{[(2R,3S,4R,5S)-3-(3-chloro-2-fluoro-phenyl)-4-(4-chloro-2-fluoro-phenyl)-4-cyano-1-cyclopropylmethyl-5-(2,2-dimethyl-propyl)-pyrrolidine-2-carbonyl]-amino}-benzoic acid]",300 nM
